Reference: patent US12594268B2, “Methods of treating Fabry disease in patients having a mutation in the GLA gene” (Amicus Therapeutics, Inc., priority 2018, dated 2026)
Numbering of substitutions follows the chain as printed.

Columns and labels:
α-Gal A mutant form G35A = target: T1, α-Gal A mutant form G35A (Homo sapiens, UniProt P06280, G35A); assay: α-Gal A activity in lysates of transfected HEK-293 cells, G35A; type: cell-based
T1 construct: expressed in transfected cells; host or cells: HEK-293
T1 sequence (P06280 32-429 G35A): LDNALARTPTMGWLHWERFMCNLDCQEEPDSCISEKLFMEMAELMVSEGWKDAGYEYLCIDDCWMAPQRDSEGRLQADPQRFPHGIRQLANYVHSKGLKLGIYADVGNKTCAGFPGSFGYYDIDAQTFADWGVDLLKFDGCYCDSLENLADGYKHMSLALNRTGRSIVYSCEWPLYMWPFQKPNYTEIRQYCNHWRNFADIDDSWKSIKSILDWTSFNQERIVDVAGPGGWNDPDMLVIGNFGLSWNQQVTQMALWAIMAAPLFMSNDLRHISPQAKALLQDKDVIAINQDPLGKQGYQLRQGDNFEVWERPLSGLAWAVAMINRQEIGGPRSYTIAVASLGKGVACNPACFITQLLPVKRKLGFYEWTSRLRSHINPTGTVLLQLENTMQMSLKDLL
Description: (§1) Baseline and 10 μM migalastat α-Gal A activity: Differences in the α-Gal A activity between lysates incubated in the absence and presence of 10 μM migalastat were determined using a one-tailed, Mann Whitney U test; an increase at 10 μM migalastat with a p<0.05 was considered significant.
(§2) 10 μM migalastat α-Gal A activity (% WT)=(α-Gal A activity in mutant transfected cell lysates incubated with 10 μM migalastat÷α-Gal A activity in wild-type transfected cell lysates without migalastat)*100.
(§3) Absolute increase (% WT)=is the 10 μM migalastat α-Gal A activity (% WT) minus the baseline α-Gal A activity (% WT).
(§4) Relative increase is the 10 μM migalastat α-Gal A activity in mutant transfected cell lysates÷baseline α-Gal A activity in mutant transfected cell lysates incubated without migalastat.

α-Gal A mutant form M96V = target: T2, α-Gal A mutant form M96V (Homo sapiens, UniProt P06280, M96V); assay: α-Gal A activity in lysates of transfected HEK-293 cells, M96V; type: cell-based
T2 construct: expressed in transfected cells; host or cells: HEK-293
T2 sequence (P06280 32-429 M96V): T1 sequence (P06280 32-429 G35A) with A4G, M65V
Description: as §1, §2, §3, §4

[1] = target: T3, α-Gal A mutant form N320H (Homo sapiens, UniProt P06280, N320H); assay: α-Gal A activity in lysates of transfected HEK-293 cells, N320H; type: cell-based
T3 construct: expressed in transfected cells; host or cells: HEK-293
T3 sequence (P06280 32-429 N320H): T1 sequence (P06280 32-429 G35A) with A4G, N289H
Description: as §1, §2, §3, §4

[2] = target: T4, α-Gal A mutant form E338V (Homo sapiens, UniProt P06280, E338V); assay: α-Gal A activity in lysates of transfected HEK-293 cells, E338V; type: cell-based
T4 construct: expressed in transfected cells; host or cells: HEK-293
T4 sequence (P06280 32-429 E338V): T1 sequence (P06280 32-429 G35A) with A4G, E307V
Description: as §1, §2, §3, §4

[3] = target: T5, α-Gal A mutant form P380L (Homo sapiens, UniProt P06280, P380L); assay: α-Gal A activity in lysates of transfected HEK-293 cells, P380L; type: cell-based
T5 construct: expressed in transfected cells; host or cells: HEK-293
T5 sequence (P06280 32-429 P380L): T1 sequence (P06280 32-429 G35A) with A4G, P349L
Description: as §1, §2, §3, §4

[4] = tested on: mutant form of α-Gal A expressed in HEK-293 cells; assay: HEK assay amenability criteria (relative increase ≥1.20-fold and absolute increase ≥3.0% wild-type)
Description: The α-Gal A activity was measured in lysates prepared from HEK-293 cells transiently transfected with the indicated mutant form of α-Gal A and incubated in the absence or presence of 10 μM migalastat for 5 days. The α-Gal A activity is expressed as the nmoles of free 4-MU released per milligram of protein per hour (nmol/mg/hr). Baseline α-Gal A activity and α-Gal A activity after incubation with 10 μM migalastat, were additionally expressed as a percentage of baseline wild-type α-Gal A activity (% WT). The wild-type α-Gal A activity that was used to calculate these percentages was the average activity measured in lysates from wild-type transfected cells, incubated in the absence of migalastat, measured in parallel.

[5] = 10 μM migalastat minus baseline
[6] = 10 μM migalastat ÷ baseline activity
[7] = HEK-293 lysates, 10 μM migalastat, 5 days, mean ± SEM

For `OC[C@H]1NC[C@H](O)[C@@H](O)[C@H]1O` [migalastat, (2R,3S,4R,5S)-2-(hydroxymethyl) piperdine-3,4,5-triol], the “Absolute increase (% WT)” value (α-Gal A mutant form G35A; [5]) was 31.0 % WT, the Relative increase (α-Gal A mutant form G35A; [6]) was 1.61 and the “10 nM migalastat α-Gal A activity” value (α-Gal A mutant form G35A; HEK-293 lysates, 10 nM migalastat as printed, 5 days, mean ± SEM) was 31694 ± 1949 nmol/mg/h. The “10 μM migalastat α-Gal A activity (% WT)” value (α-Gal A mutant form G35A; [7]) was 82.1 ±5.6 % WT, the “Absolute increase (% WT)” value (α-Gal A mutant form M96V; [5]) was 24.2 % WT and the Relative increase (α-Gal A mutant form M96V; [6]) was 2.68. The “10 μM migalastat α-Gal A activity” value (α-Gal A mutant form M96V; [7]) was 14612 ± 1009 nmol/mg/h, the “10 μM migalastat α-Gal A activity (% WT)” value (α-Gal A mutant form M96V; [7]) was 38.1 ± 2.4 % WT and the “Absolute increase (% WT)” value [1, 5] was 32.2 % WT. The Relative increase [1, 6] was 2.59, the “10 μM migalastat α-Gal A activity” value [1, 7] was 22149 ± 1050 nmol/mg/h and the “10 μM migalastat α-Gal A activity (% WT)” value [1, 7] was 52.9 ± 3.1 % WT. The “Absolute increase (% WT)” value [2, 5] was 24.7 % WT, the Relative increase [2, 6] was 1.83 and the “10 μM migalastat α-Gal A activity” value [2, 7] was 21807 ± 845 nmol/mg/h. For the same compound, the “10 μM migalastat α-Gal A activity (% WT)” value [2, 7] was 54.8 ± 2.2 % WT, the “Absolute increase (% WT)” value [3, 5] was 7.1 % WT and the Relative increase [3, 6] was 2.98. The “10 μM migalastat α-Gal A activity” value [3, 7] was 4248 ± 369 nmol/mg/h, the “10 μM migalastat α-Gal A activity (% WT)” value [3, 7] was 10.6 ± 1.0 % WT and the “in vitro response to incubation with migalastat (amenability)” value (“in vitro response to incubation” for short) ([4]; Table 2, mutations D33H, G35A, Y88S, T194A, W204G, Y216S, Q250K, and R392T) was “met amenability criteria”. The “in vitro response to incubation” value ([4]; Table 3, mutations printed as D33H, G35A, Y88S, T194A, W204G, Y216S, Q250K, and R392T) was “met amenability criteria” and the “in vitro response to incubation” value ([4]; Table 4, mutations V22G, N34H, G80V, Q107R, Y152D, A156S, L189F, W204L, S238G, 1239M, A257V, P259Q, N320H, P323T, E338V, P380L, and T412P) was “met amenability criteria”.
